The numbers were not newly measured in patent publication US20260373126A1, “COMPOSITIONS AND METHODS OF TREATING CANCER” (Board of Supervisors of Louisiana State University and …, priority 2022, published 2026), which cites them from elsewhere.

This series has as its system mitochondrial respiration. The settings on record: reference 2.

As to `CC(C)OC(=O)C(C)(C)Oc1ccc(C(=O)c2ccc(Cl)cc2)cc1` [FF, Fenofibrate], the mitochondrial respiration entry is listed as “blocked mitochondrial respiration”.
